The assay deals with porcine serum-induced rat liver fibrosis. The experiment in a line: Antifibrotic action in vivo, porcine serum-induced rat liver fibrosis. Also on record: species or system Female Sprague Dawley rats. The settings on record: seven weeks. The source says:
The antifibrotic action of the substances was investigated using the model of the porcine serum-induced rat liver fibrosis. Treatment with heterologous serum, for example porcine serum in rats, is a method frequently used in the literature for inducing fibrosis of the liver with subsequent cirrhosis which, in contrast to other models, causes only minimal damage and inflammation of the parenchyma cells of the liver (Bhunchet, E. and Wake, K. (1992): Role of mesenchymal cell populations in porcine serum-induced rat liver fibrosis. Hepatology 16: 1452-1473). […] After seven weeks of treatment, the animals were killed and the livers were removed in order to quantify the collagen content. […]
Fast Green was used as counterstain to enhance contrasts. In each section, the extent of liver fibrosis was determined as a percentage of the area stained by Pikrosirius Red of the total area measured. […] 64 fields of a standardized grid of 31 mm^2 were measured using a final amplification of 100. […]
To determine OH-proline according to Prockop and Udenfried (Prockop, D. J. and Udenfried, S. A. (1960): A specific method for the analysis of hydroxyproline in tissues and urine. Anal. Biochem. 1: 228-239), in each case 50-100 mg of liver tissue were dried and boiled with 6N HCl for about 17 hours. […] After 3 hours of incubation at 35° C., absorption at 573 nm was measured. […]

The values below come from patent US6939989B2, “Side-chain halogenated amino dicarboxylic acid derivatives as medicaments for treating cardiovascular diseases” (Bayer Aktiengesellschaft, priority 2001, dated 2005).

In the case of `O=C(O)CCCCN(CCc1ccccc1OCc1ccc(-c2ccc(C(F)(F)F)cc2)cc1Cl)Cc1ccc(C(=O)O)cc1` [Example 6], the “Reduction of collagen deposits in the liver (OH-proline, morphometric fibrosis measurement)” value (0.03 mg/kg p.o. o.d.) is recorded as “about a half” and the “Reduction of collagen deposits in the liver (OH-proline, morphometric fibrosis measurement)” value (0.1 mg/kg p.o. o.d.) is “about a half”.
